In brackets after ≈: the same amount, converted by molar mass.
Assays:
Assay type in all cases: functional
Candida albicans = test: Antimicrobial activity against Candida albicans ATCC 76615
Candida parapsilosis = test: Antimicrobial activity against […] isolates; settings: Lodderomyces parapsilosis
Candida tropicalis = test: Antimicrobial activity against Candida tropicalis isolates
Cryptococcus neoformans = test: Antimicrobial activity against Cryptococcus neoformans ATCC 32609
Aspergillus fumigatus = test: Antimicrobial activity against Aspergillus fumigatus isolates
Trichophyton rubrum = test: Antimicrobial activity against Trichophyton rubrum isolates
Nannizzia gypsea = test: Antimicrobial activity against Microsporum gypseum isolates
Fonsecaea compacta = test: Antimicrobial activity against Fonsecaea compacta isolates

An MIC (Candida albicans) of 0.0039 µg/mL (≈ 0.00866 µM), an MIC (Candida parapsilosis) of 0.0039 µg/mL (≈ 0.00866 µM) and an MIC (Candida tropicalis) of 0.0156 µg/mL (≈ 0.0346 µM) were found for ON=Cc1ccc(-c2ccc(OCC(O)(Cn3cncn3)c3ccc(F)cc3F)cc2)cc1 (stereo not drawn) in this work. For the same molecule, the MIC (Cryptococcus neoformans) was 1 µg/mL (≈ 2.22 µM), the MIC (Aspergillus fumigatus) was over 64 µg/mL and the MIC (Trichophyton rubrum) was 1 µg/mL (≈ 2.22 µM). For the same molecule, the MIC (Nannizzia gypsea) was 1 µg/mL (≈ 2.22 µM) and the MIC (Fonsecaea compacta) was 1 µg/mL (≈ 2.22 µM).

From ChEMBL document CHEMBL1143091, “Synthesis and SAR studies of biaryloxy-substituted triazoles as antifungal agents” (2008)
